Laboratory results: publication PMC5522050, “Sulfatinib, a novel kinase inhibitor, in patients with advanced solid tumors: results from a phase I study” (Oncotarget, 2017)
Where two headings read alike, the source gives them in different places.

Assays:
pancreatic NET patients [1] = system: pancreatic NET patients; set-up: method as in PMID 21306237; settings: phase III trial; cited from earlier work
pancreatic NET patients [2] = system: pancreatic NET patients; set-up: method as in PMID 21306238; settings: phase III trial; cited from earlier work
GI and lung NET patients = system: GI and lung NET patients; set-up: method as in PMID 26703889; settings: phase III trial; cited from earlier work
advanced solid tumors = experiment: tumor response by RECIST Version 1.0; format: in vivo, human
Protocol: Patients with NETs were enrolled with priority as preliminary efficacy was shown in these tumor types in the dose-escalation stage. Tumor response (an exploratory endpoint) was assessed according to RECIST Version 1.0 and measured at baseline, at the end of every treatment cycle in the first four cycles, and every other cycle thereafter. […] Calculations of the following parameters were made: ORR (CR + PR); SD defined as ≥1 assessment of SD at least six weeks after study entry; DCR (CR + PR + SD). TTR, DoR and PFS were analyzed in the subgroup of patients with NET.

VEGFR 3 = VEGFR 3 (Homo sapiens, UniProt P35916); experiment: kinase selectivity profile; format: biochemical
Excerpt: (§1) Table 1 Sulfatinib kinase selectivity profile | column: IC50 (μM)

TrkB = TrkB (Homo sapiens, UniProt Q16620); experiment: kinase selectivity profile; format: biochemical
TrkB, sequence (Q16620 32-822): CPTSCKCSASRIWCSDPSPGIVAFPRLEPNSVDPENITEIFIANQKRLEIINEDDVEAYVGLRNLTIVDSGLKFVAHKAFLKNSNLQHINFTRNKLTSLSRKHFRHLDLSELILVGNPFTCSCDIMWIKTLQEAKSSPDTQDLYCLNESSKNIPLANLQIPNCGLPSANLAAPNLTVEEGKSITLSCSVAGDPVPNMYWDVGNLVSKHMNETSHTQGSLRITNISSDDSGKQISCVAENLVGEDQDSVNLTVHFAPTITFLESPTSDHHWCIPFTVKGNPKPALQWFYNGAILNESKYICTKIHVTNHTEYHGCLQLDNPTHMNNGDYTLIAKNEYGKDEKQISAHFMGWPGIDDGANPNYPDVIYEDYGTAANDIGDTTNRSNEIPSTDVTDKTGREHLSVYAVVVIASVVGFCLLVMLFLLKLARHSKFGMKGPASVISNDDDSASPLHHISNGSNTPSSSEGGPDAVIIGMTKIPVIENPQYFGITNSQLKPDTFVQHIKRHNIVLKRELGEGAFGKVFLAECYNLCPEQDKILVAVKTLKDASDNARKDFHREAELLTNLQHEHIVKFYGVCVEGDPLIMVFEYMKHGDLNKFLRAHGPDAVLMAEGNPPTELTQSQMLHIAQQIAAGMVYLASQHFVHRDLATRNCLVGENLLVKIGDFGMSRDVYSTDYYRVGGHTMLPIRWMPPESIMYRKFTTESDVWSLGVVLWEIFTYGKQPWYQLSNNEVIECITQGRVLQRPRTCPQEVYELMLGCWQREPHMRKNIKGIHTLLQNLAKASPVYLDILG
Excerpt: as §1

CSF1R = CSF1R (Homo sapiens, UniProt P07333); experiment: kinase selectivity profile; format: biochemical
CSF1R, sequence (P07333 20-972): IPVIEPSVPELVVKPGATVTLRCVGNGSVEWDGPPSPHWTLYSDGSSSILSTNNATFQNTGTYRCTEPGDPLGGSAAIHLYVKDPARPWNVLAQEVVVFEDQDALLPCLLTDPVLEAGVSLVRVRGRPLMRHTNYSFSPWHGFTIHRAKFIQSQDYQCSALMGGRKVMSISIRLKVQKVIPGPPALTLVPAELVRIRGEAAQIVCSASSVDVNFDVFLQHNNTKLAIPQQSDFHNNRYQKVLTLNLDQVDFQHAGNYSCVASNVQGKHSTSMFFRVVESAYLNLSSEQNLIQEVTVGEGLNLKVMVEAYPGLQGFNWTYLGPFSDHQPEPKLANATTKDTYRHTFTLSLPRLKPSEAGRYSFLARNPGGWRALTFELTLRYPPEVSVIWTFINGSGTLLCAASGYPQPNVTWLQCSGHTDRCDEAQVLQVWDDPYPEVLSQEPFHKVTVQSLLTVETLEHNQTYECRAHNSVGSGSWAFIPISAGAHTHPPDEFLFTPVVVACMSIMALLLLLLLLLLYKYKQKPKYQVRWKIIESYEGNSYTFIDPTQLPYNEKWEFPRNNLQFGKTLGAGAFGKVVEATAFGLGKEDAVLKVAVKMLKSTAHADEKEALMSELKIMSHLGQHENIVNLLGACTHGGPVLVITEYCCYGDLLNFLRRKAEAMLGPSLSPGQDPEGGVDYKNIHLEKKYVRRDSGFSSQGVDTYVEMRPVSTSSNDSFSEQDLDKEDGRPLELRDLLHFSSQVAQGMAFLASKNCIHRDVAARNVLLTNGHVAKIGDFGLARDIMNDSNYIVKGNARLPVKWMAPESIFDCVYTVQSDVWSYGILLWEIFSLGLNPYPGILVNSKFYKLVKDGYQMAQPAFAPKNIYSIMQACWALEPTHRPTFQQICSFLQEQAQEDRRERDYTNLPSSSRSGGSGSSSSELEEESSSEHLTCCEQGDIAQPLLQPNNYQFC
Excerpt: as §1

FLT3 = target: T1, FLT3 (Homo sapiens, UniProt P36888); experiment: kinase selectivity profile; format: biochemical
T1 sequence (P36888 27-993): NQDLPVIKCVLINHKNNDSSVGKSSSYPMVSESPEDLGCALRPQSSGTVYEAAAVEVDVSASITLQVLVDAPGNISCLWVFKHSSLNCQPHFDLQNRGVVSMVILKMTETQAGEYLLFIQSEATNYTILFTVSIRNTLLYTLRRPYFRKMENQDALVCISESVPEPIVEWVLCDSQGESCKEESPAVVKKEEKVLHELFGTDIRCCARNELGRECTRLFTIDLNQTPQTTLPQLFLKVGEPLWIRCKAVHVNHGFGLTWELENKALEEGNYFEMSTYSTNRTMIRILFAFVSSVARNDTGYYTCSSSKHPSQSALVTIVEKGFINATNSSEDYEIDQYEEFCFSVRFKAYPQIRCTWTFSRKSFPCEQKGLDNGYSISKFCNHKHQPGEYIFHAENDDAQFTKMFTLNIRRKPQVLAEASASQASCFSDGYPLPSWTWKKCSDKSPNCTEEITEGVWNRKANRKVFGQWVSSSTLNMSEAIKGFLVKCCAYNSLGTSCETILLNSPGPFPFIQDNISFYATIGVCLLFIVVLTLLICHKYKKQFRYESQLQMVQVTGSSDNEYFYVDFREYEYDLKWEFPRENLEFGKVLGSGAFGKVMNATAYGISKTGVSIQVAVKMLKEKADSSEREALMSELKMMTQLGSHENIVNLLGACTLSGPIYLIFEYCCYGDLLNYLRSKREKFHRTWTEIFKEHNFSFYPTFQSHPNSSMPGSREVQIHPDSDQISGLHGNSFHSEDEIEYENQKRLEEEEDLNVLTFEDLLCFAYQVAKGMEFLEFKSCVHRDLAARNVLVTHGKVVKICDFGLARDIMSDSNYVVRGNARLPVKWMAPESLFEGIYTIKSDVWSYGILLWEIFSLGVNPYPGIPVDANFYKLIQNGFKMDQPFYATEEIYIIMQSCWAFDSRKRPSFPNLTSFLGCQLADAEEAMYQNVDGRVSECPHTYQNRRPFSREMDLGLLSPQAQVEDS
Excerpt: as §1

VEGFR 2 = VEGFR 2 (Homo sapiens, UniProt P35968); experiment: kinase selectivity profile; format: biochemical
Excerpt: as §1

VEGFR 1 = VEGFR 1 (Homo sapiens, UniProt P17948); experiment: kinase selectivity profile; format: biochemical
VEGFR 1, sequence (P17948 27-1338): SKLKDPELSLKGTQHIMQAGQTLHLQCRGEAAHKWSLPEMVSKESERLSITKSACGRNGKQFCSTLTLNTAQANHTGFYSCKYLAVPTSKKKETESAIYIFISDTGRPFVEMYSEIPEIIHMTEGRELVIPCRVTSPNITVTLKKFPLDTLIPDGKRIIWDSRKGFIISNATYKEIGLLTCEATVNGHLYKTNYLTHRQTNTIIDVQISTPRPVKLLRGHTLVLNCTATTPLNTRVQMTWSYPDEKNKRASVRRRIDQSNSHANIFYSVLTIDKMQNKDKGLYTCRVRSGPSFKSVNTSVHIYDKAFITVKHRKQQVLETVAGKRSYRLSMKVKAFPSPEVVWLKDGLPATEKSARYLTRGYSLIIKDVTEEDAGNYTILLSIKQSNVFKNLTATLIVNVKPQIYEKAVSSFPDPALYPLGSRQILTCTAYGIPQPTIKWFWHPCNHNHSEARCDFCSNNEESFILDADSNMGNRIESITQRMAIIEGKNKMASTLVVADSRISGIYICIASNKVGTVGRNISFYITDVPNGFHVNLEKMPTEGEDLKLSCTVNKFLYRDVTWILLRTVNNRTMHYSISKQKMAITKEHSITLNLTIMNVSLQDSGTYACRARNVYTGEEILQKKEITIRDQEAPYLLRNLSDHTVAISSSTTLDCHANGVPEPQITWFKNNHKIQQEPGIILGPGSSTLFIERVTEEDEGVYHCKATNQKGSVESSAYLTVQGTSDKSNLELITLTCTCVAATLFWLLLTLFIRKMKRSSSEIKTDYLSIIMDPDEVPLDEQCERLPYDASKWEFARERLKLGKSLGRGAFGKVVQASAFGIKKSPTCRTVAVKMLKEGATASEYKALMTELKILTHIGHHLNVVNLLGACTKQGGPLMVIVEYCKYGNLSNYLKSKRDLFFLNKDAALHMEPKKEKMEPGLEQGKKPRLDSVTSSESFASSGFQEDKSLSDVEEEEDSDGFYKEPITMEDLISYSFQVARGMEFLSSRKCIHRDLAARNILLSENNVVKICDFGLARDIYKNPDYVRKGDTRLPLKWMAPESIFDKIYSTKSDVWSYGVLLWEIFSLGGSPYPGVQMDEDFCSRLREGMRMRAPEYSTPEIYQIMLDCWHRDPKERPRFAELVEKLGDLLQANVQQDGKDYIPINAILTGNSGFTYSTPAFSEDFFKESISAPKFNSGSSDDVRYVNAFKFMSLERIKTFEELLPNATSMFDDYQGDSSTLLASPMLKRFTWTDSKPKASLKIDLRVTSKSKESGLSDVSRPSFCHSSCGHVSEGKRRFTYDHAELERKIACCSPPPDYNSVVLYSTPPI
Excerpt: as §1

FGFR1 = FGFR1 (Homo sapiens, UniProt P11362); experiment: kinase selectivity profile; format: biochemical
FGFR1, sequence (P11362 22-822): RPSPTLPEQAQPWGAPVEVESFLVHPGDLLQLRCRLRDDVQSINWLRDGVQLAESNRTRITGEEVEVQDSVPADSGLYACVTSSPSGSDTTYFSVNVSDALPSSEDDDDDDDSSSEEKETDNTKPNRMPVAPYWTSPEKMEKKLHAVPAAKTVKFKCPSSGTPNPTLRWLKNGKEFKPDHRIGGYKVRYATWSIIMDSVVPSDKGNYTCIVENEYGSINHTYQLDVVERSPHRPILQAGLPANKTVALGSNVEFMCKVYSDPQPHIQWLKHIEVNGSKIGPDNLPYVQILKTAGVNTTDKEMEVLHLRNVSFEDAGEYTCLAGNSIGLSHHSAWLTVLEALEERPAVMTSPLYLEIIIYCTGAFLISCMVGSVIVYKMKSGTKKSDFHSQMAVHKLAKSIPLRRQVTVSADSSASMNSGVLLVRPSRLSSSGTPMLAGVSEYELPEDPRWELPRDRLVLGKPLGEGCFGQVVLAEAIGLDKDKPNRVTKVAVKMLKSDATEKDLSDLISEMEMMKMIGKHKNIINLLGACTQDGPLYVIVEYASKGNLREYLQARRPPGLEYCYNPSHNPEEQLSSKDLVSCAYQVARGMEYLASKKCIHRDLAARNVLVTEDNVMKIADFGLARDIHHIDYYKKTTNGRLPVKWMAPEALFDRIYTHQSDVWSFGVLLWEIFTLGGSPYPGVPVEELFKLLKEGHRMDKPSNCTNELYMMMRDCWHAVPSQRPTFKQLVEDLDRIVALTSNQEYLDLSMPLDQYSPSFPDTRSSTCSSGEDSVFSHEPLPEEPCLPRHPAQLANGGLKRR
Excerpt: as §1

278 other kinases = experiment: kinase selectivity profile (broad kinase screening); format: biochemical
Excerpt: as §1

[3] = system: patients with advanced solid tumors; experiment: phase I safety and tolerability (AEs, DLTs, MTD); format: in vivo; settings: doses of 50-350 mg QD and 125-150 mg BID; up to 350 mg QD (formulation 2)
Excerpt: The primary objectives of this open-label, first-in-human phase I study (NCT02133157) were to determine MTD and the phase II dose of sulfatinib, and to evaluate the safety of sulfatinib in patients with advanced solid tumors. The secondary and exploratory objectives included evaluation of sulfatinib PK and preliminary anti-tumor activity. The study consisted of a dose-escalation phase (split into a single-dose period and continuous-dose period) and a tumor-specific expansion phase. Two sulfatinib formulations were used during the study: formulation 1 (5, 25, and 50 mg capsules) and formulation 2 (50 and 200 mg capsules). […]
During the dose-escalation phase, patients were given a single dose of sulfatinib and monitored for AEs for seven days. […] DLTs were assessed at the end of the 28-day period. […]
The study used a modified Fibonacci 3+3 dose-escalation design with at least three evaluable patients treated with each dose. […] If two or more of the first three or overall six patients experienced a DLT, the MTD was considered exceeded and the previous lower dose would be re-assessed to determine the MTD. […]
Safety and tolerability were assessed in all patients who received at least one dose of sulfatinib throughout the study. AEs were recorded throughout the study. […]

[4] = three NET patients who progressed on prior VEGFR kinase inhibitors

## CCN(CC)CCNC(=O)c1c(C)[nH]c(/C=C2\C(=O)Nc3ccc(F)cc32)c1C [sunitinib]
Pancreatic NET patients [1]
  ORR: 9.3%
  PFS: 11.0 months

## CO[C@H]1C[C@@H]2CC[C@@H](C)[C@@](O)(O2)C(=O)C(=O)N2CCCC[C@H]2C(=O)O[C@H]([C@H](C)C[C@@H]2CC[C@@H](OCCO)[C@H](OC)C2)CC(=O)[C@H](C)/C=C(\C)[C@@H](O)[C@@H](OC)C(=O)[C@H](C)C[C@H](C)/C=C/C=C/C=C/1C [everolimus]
Pancreatic NET patients [2]
  ORR: 5%
  median PFS: 11.0 months
GI and lung NET patients
  ORR: 2%
  median PFS: 11.0 months

## Cc1cc2cc(Oc3ccnc(Nc4cccc(CS(=O)(=O)NCCN(C)C)c4)n3)ccc2[nH]1 [Sulfatinib]
Advanced solid tumors; all 77 patients
  patients with confirmed PR: Nine
  patients with sustainable SD: 23
Advanced solid tumors; all 77 patients (9/77)
  objective response rate (ORR): 11.7%
Advanced solid tumors; all 77 patients (32/77)
  disease control rate (DCR): 41.6%
Advanced solid tumors; [4]
  patients achieving PR: one
  patients achieving SD: two
VEGFR 3
  IC50: 1 nM
TrkB
  IC50: 41 nM
CSF1R
  IC50: 4 nM
FLT3
  IC50: 67 nM
VEGFR 2
  IC50: 24 nM
VEGFR 1
  IC50: 2 nM
FGFR1
  IC50: 15 nM
278 other kinases
  IC50: > 150 nM
[3]
  maximum tolerated dose (MTD): not reached
